The values below are quoted from earlier work in patent US8853454B2, “Quaternary ammonium salts as microbe inhibitors” (Mionix Corporation, priority 2006, dated 2014).

For the data set the following is noted: in vivo.

Regarding `OCCCl` [2-chloroethanol], the oral lethal dose is 50 to 500 mg/kg.
